# Reference: a melting point compilation (Tetko et al.; mined from patent text by program, amines drawn as free bases though some values may be those of a salt)
row,melting point [°C],Compound
1,135 to 145,COC(=O)C1=C(C)NC(C)=C(C(=O)OC)C1c1cccc(NC(=NC#N)N(C)CCCN2CCC(c3ccccc3)CC2)c1
2,140 to 146,COc1ccc(C(=O)C(CC(=O)N[C@@H](Cc2ccccc2)C(=O)O)SC(C)=O)cc1F (stereo partly drawn)
3,133 to 134,CNC(=O)c1cc2c(Oc3ccc(COCCOC)cc3)cncc2s1
4,81 to 82,CCc1c(Oc2ccc(C(F)(F)F)cc2[N+](=O)[O-])nn(C(=O)NC)c1C
5,254,CC(=O)C1=C(C)Nc2nc(N)nc(N)c2C1c1ccccc1Cl (stereo not drawn)
6,124 to 126,O=C(O)Cn1cc(C2(O)CCCC2)nn1
7,198 to 200,COc1c(Br)ccc2oc(COc3ccc(-c4ccc(S(=O)(=O)NC(C(=O)O)C(C)C)cc4)cc3)c(C)c12 (stereo not drawn)
8,140 to 141,OCc1ccccc1SCc1cc2c(cc1O)CCCO2
9,156,CCOC(=O)C1=C(N)N=C(SCC)C(C(=O)OCC)C1c1ccncc1 (stereo not drawn)
10,192 to 194,N#CCNC(=O)C1(NC(=O)c2ccc(N3CCN(C(=O)OCC4c5ccccc5-c5ccccc54)CC3)cc2)CCCCC1
11,162,O=S(CCCCOc1ccc(C2=C(c3ccccc3)CCCc3cc(O)ccc32)cc1)Cc1ccccn1 (stereo not drawn)
12,247 to 249,CC1(C)CCC(C)(C)c2c1ccc(C=Nc1ccc(C(N)=O)cc1)c2N
13,147 to 150,N#Cc1ccc(/C=C/C=C/C=O)cc1
14,97 to 98,CN1CCCC(OC(=O)Nc2ccc(F)cc2)C1 (stereo not drawn)
15,125 to 126,COc1ccc(OC)c2c1C(=O)C=C(SCCCO)C2=O
16,109,Fc1cccc(F)c1COCc1nc2ccccc2n1Cc1c(F)cccc1F
17,116 to 117,COc1cc(C)ccc1CNC(=O)C(=O)NCCc1ccc(C)cn1
18,137 to 141,O=C(OCc1ccccc1)N1CCN(C(=O)C(Cc2ccc(O)cc2)NS(=O)(=O)c2cccc3cnccc23)CC1 (stereo not drawn)
19,110 to 112,CCCCN1CCC[C@H]1CNC(=O)c1cc(Cl)cc2c1OC(C)(C)CN2C
20,132 to 134,COC(=O)CC[C@H]1CC[C@@H](NC(=O)N(NC(C)=O)c2ccc(C#N)cc2)CC1
21,130,CCCn1cc(C(=O)OCC)c(=O)c2ccoc21
22,235 to 237,CCOC(=O)c1c2n(c3c(F)c(N4CCC(NC(=O)C(F)(F)F)C4)c(F)cc3c1=O)C(C)S2 (stereo not drawn)
23,232 to 234,CC1(C)Oc2cc3nonc3cc2C(NC(=O)CCl)C1O (stereo not drawn)
24,85 to 87,CS(=O)(=O)OC1CN(C(c2ccccc2)c2ccccc2)C1
25,150 to 153,CN1CCc2cc(O)c(O)cc2C1C1(c2ccc3ccccc3c2)CCC1 (stereo not drawn)
26,92 to 94,CCCCC(=O)c1oc(=O)[nH]c1C

row,melting point [°C],Compound
1,138 to 141,COc1ccc(NN=C(Sc2ccc(C)c(C)c2)C(C)=O)cc1
2,178 to 180,Cn1nc2cccc(OCCF)c2c1S(N)(=O)=O
3,153 to 157,NC(=S)c1c(F)cccc1Cl
4,130 to 132,Cc1ccc(OCCC(C(=O)O)c2ccccc2)c2ccccc12 (stereo not drawn)
5,169 to 172,COC(=O)[C@H](CSCc1ccccc1)NC(=O)Nc1n[nH]c(=S)s1
6,119 to 120,CC(C)Oc1cc(O)c(C(=O)C=Cc2ccccc2OC(C)C)c(OC(C)C)c1
7,122 to 125,O=C1CCC(N2C(=O)c3cccc(NC(=O)CCCCCNC(=O)OCc4ccccc4)c3C2=O)C(=O)N1 (stereo not drawn)
8,40 to 41,COc1ccc(C(Cl)C(C)(C)[N+](=O)[O-])cc1 (stereo not drawn)
9,213 to 214,CCC(O)c1ccc(Cl)c2nc3n(c12)CCCN3c1c(Cl)cc(Cl)cc1Cl (stereo not drawn)
10,192 to 195,COc1ccc(OCC(O)CN2CCN(C(N)=O)CC2)cc1 (stereo not drawn)
11,223 to 228,N#CC(=Cc1cc(O)c(O)c([N+](=O)[O-])c1)C(=O)NCCCO
12,67 to 69,C[Si]1(C)CCCCCCCC[Si](C)(C)O[Si](C)(C)CCCCCCCC[Si](C)(C)O1
13,242 to 243,O=c1oc(-c2ccccc2)cc(O)c1Sc1cccc2ccccc12
14,143,CCCNCC(=O)Nc1ccc2c(c1)C(=O)c1cc(NC(=O)CNCCC)ccc1C2=O
15,239 to 240,O=CNc1ccc(C2=NNC(=O)C3CC23)cc1 (stereo not drawn)
16,137 to 142,COc1ccc(CBr)cc1S(=O)(=O)NC(C)(C)C
17,176 to 177,Cc1c(NC(=O)c2ccc(OCc3ccccc3)cc2F)ccc2cc(CN3CCCC3)cnc12
18,179,O=C(O)C1=CS[C@@H]2/C(=C/c3ccc4c(c3)N(Cc3ccccc3)C(=O)c3ccccc3O4)C(=O)N12
19,122,O=C1c2cccc3cc4ccccc4c(c23)C(=O)N1CCNCCCCCNCCN1C(=O)c2cccc3cc4ccccc4c(c23)C1=O
20,167,O=C(NC(Cc1ccc(OCc2ccccc2)cc1)c1noc(=O)[nH]1)c1cn2cc(-c3ccc(Cl)cc3)ccc2n1 (stereo not drawn)
21,135 to 138,CON(C)C(=O)c1cc(-c2ccccc2)n[nH]1
22,79 to 80,COc1ccc(CN([C@@H](CO)c2ccccc2)S(=O)(=O)c2ccc(Cl)cc2)cc1C(=O)O
23,105,Cc1cc(O)ccc1S(C)(=O)=O
24,176 to 178,CN(C)c1cc2c(cc1Cl)NC(=O)CC(c1cccc(-c3csc(CO)n3)c1)=N2
25,225 to 227,CC(C)(CCO)c1ccc(C(=O)Nc2cn3cc(-n4ccnc4)ccc3n2)cc1
26,182,O=C(/C=C/c1ccc(C(=O)O)cc1)NOC1CCCCO1 (stereo not drawn)

# The remaining lines, values behind:
row,Compound,melting point [°C]
1,C=CCc1c(O)c(C(=O)OC)cc(Cl)c1NC(C)=O,189 to 190
2,CNC1CCc2[nH]c3c(F)cc(F)cc3c2C1 (stereo not drawn),135 to 138
3,Cc1cc(C#N)cc(C(=O)Nc2cccc(Cl)c2)n1,148
4,CC(C)C(Cl)C(=O)Nc1c(C(=O)CC(=O)Nc2ccccn2)cccc1C(F)(F)F (stereo not drawn),136 to 138
5,CCNC(=O)N1N=C(c2ccc([N+](=O)[O-])cc2)c2cc(Cl)ccc2CC1C (stereo not drawn),170 to 172
6,CC(=O)ON=C1Cc2ccccc2N(C(N)=O)c2ccccc21,176 to 177
7,N#CCN1C(=O)COc2cc(F)ccc21,111 to 113
8,O=C(O)[C@@H]1C[C@H](Cc2ccc(Cl)cc2)CN1,233 to 235
9,CCOC(=O)c1cnc2nc(C=CC(N)=O)c(OCC)cc2c1Nc1ccc(OC)cc1,238 to 242
10,O=C1CCC(c2ccc3[nH]c(-c4ccccc4)cc3c2)=NN1,270 to 275
11,COC(=O)c1sc(OC)cc1OP(=O)(OC)OC,35
12,O=C(O)CCCC(=O)c1cc(-c2ccccc2)nc2ccccc12,136
13,OCCc1c(C2=CCC(c3ccccc3)(N3CCCC3)CC2)[nH]c2ccc(F)cc12 (stereo not drawn),188 to 191
14,CCCCCCCCC=CCCCCCCCC(=O)CCCNC(=O)CCNC(C)=O,123 to 125
15,O=C(O)c1cccc(CN2CCC(N3C(=O)Nc4ccccc4C3c3ccccc3)CC2)c1 (stereo not drawn),> 250
16,O=C(Oc1cc([N+](=O)[O-])cc([N+](=O)[O-])c1O)c1ccccc1,150 to 152
17,Cc1cc(C2=NOC(c3cc(Cl)cc(Cl)c3)(C(F)(F)F)C2)ccc1C(=O)NC1CSSC1 (stereo not drawn),73
18,CCCCC1(N(C)C)CC=C(c2[nH]c3ccccc3c2CCNC(=O)CC(C)(C)C)CC1 (stereo not drawn),139 to 142
19,COC(=O)C=Nc1cc(Cl)ccc1C(=O)O,201 to 203
20,Cn1c(=O)ccc2cc(CBr)ccc21,99 to 100
21,CCc1noc(C)c1-c1[nH]c2ccccc2c1CC(=O)N(C)C,176 to 178
22,CCN(Cc1cc(Cl)ccc1OCC1CC1)c1ccc(C(N)=O)nn1,177 to 178
23,CC(C)(C)Cc1c(C(C)(C)C)ssc1=S,81

row,Compound,melting point [°C]
1,N#Cc1cc(C(Cl)(Cl)Cl)ccc1Cl,66 to 68
2,COc1cc(SCCCc2ccc(-c3ccc(CCCSc4ccc(OCC(=O)O)c(OC)c4)cc3)cc2)ccc1OCC(=O)O,178 to 180
3,Nc1c(F)c(F)nc(-n2cc(C(=O)O)c(=O)c3cc(F)c(F)c(Cl)c32)c1F,280 to 283
4,CSC(=NCCSCc1cc2ccc(CN(C)C)cc2o1)NC#N,98 to 100
5,CC(C)(C)[Si](C)(C)OC(=O)O[Si](C)(C)C(C)(C)C,128 to 130
6,CON=C1CN(c2c(F)cc3c(=O)c(C(=O)O)cn(C4CC4)c3c2OC)CC12CC2,219 to 221
7,Cc1cc(Oc2ncc(C(F)(F)F)cc2Cl)nn1C(=O)NC1CC1,98 to 99
8,O=C(NC(=O)c1ccccc1Cl)Nc1ccc(F)c(C(F)(F)F)c1Cl,208
9,Cc1ccccc1-c1c(C#N)nn(-c2c(Cl)cc(C(F)(F)F)cc2Cl)c1N,199 to 202
10,CCCCN(CCCOc1ccc2ccccc2c1)c1ccc(OC)cc1,127
11,FC(F)(F)c1ccc(-c2cc(Oc3ccc4cccnc4c3)ncn2)c(NCC2CCCCC2)c1,137 to 138
12,CC12CCCC1C1CC=C3CC(O)CC(O)C3(C)C1CC2 (stereo not drawn),182 to 183
13,O=C(CCCC=CCC1C(O)CC(O)C1C=CC(O)CCc1ccccc1)ON1C(=O)CCC1=O (stereo not drawn),93.5 to 103
14,O=C(Nc1ccc(C(=O)N2Cc3ccccc3Cc3ccccc32)cc1)c1ccccc1C(F)(F)F,191 to 193
15,COc1cc(C)ccc1S(=O)(=O)NC(=O)C(c1ccc2c(c1)OCO2)c1cn(C)c2ccc(Br)cc12 (stereo not drawn),145 to 150
16,COc1ccc(N=Nc2ccc(O)c(C(=O)Nc3ccc4[nH]cnc4c3)c2)cc1,274
17,COc1ccc(-c2[nH]cnc2-c2cc(OC)c(O)c(OC)c2)cc1F,125 to 127
18,COC(=O)C=Cc1cc(Oc2c(Cl)cc(C(F)(F)F)cc2Cl)ccc1[N+](=O)[O-],90
19,COc1cc(C=O)cc(OCCCC(=O)O)c1OC,90 to 92
20,O=Cc1c(F)cccc1Br,35 to 37
21,CC(C)(C)c1cc([N+](=O)[O-])cc(C(C)(C)C)c1O,167 to 168
22,CN1CCC(c2c[nH]c3ccc(C4CN=CS4)cc23)CC1 (stereo not drawn),158 to 160
23,Nc1nc(NCCO)nc(-c2cc(Cl)ccc2Cl)n1,198 to 199
